Laboratory results published in patent US9518976B2, “Methods for identifying or assaying for agents that increase beta-cell proliferation, insulin secretion, insulin sensitivity, glucose tolerance and decrease fat mass” (The Trustees of Columbia University in The City of New York, priority 2006, dated 2016).
Ends that are not written are not given here.

Assays:
Wild type adipocytes = test: Adiponectin expression in wt adipocytes treated with osteocalcin (real time PCR); format: cell-based, mouse; details: wild type adipocytes treated for 4 hours; real time PCR; vs vehicle
Text: FIG. 7. Esp−/− Mice Are a Model of Increased Osteocalcin Bioactivity. (A-G) Comparison between 6-week-old WT, Esp−/, Ocn+/−, and Esp−/−; Ocn+/− mice. (A) Blood glucose levels. (B) Serum insulin levels. (C) Serum adiponectin levels. (D) GTT. (E) ITT. (F) GSIS test. (G) Quantification of the number of Ki67-immunoreactive cells in pancreatic islets. […] (J) Expression of Adiponectin in WT adipocytes cocultured with osteoblasts treated with warfarin or vehicle. (K) Expression of Adiponectin in WT adipocytes cultured in presence of vehicle or of 1 ng/ml of commercially available carboxylated osteocalcin (Immunotopics) or bacterially produced uncarboxylated osteocalcin. (L) Expression of Insulin and Cyclin D1 in WT islets cultured in presence of 0.3 ng/ml of bacterially produced uncarboxylated osteocalcin or vehicle. (M) Metabolic parameters and total serum osteocalcin levels in control and obese patients. (N-O) Quantification of carboxylated osteocalcin (HA-bound osteocalcin) in control and obese patients. In (A)-(C) and (G)-(L): *p<0.05 versus WT (Student's t test); in (D)-(F), °p<0.05 versus WT and *p % 0.001 versus WT (ANOVA followed by post hoc analysis).
FIG. 15. […] Wt adipocytes were treated for 4 hours with recombinant full-length osteocalcin (1-46) or a truncated form (1-36) or vehicle. Adiponectin expression was then quantified by real time PCR.
Primary adipocytes were isolated from epididymal fat pads by collagenase digestion. Briefly, minced adipose tissue was digested by 1 mg/ml collagenase P in KRP Buffer (20 mM HEPES, 120 mM NaCl, 6 mM KCl, 1.2 mM MgSO4, 1 mM CaCl2, 0.6 mM Na2HPO4, 0.4 mM NaH2PO4, 2.5 mM D-glucose, 2% BSA, pH 7.4) for 1 h at 37° C. The isolated cells were washed twice with KRP Buffer before being cultured in αMEM/1% FBS at 37° C. in 5% CO2.
All gene expression analyses were performed using real time PCR. DNAse I-treated total RNA was converted to cDNA with the SuperScript III kit (Invitrogen). Real-time PCR were performed using the Taq SYBR Green Supermix with ROX (Biorad) on an MX3000 instrument (Stratagene); beta-actin amplification was used as an internal reference for each sample. All primers were from SuperArray.
Experiments were performed to test whether truncated osteocalcin was as effective as full-length uncarboxylated osteocalcin in stimulating adiponectin secretion from mouse adipocytes in vitro. Wild type adipocytes were treated for 4 hours with recombinant full-length osteocalcin (1-46) or a truncated form (1-36) (having a deletion of the […] ten amino acids from the C-terminal end) or vehicle. Adiponectin expression was then quantified by real time PCR. […]

[1] = tested on: GTG-induced obesity in wt mice; test: Osteocalcin subcutaneous infusion in gold thioglucose (GTG)-injected wt mice: body weight gain; format: in vivo, mouse; details: GTG-injected wild type mice; for body weight gain: 1 ng/hr s.c. osmotic pump for 28 days, from 7 days on, vs PBS
Protocol: FIG. 14. […] Wt mice were injected with gold thioglucose (GTG) or vehicle to induce hyperphagia and obesity. Two weeks later they were implanted with subcutaneous osmotic pumps infusing […] of recombinant osteocalcin or PBS for 28 days before. Body weight gain was recorded thereafter at indicated days.
The effect of uncarboxylated osteocalcin on GTG-induced obesity was investigated (FIG. 14). Wild type mice were injected with gold thioglucose (GTG) to induce hyperphagia and obesity or vehicle. Two weeks later they were implanted with subcutaneous osmotic pumps infusing 1 ng/hr of recombinant uncarboxylated osteocalcin or PBS for 28 days. […] At 28 days, body weight was reduced by about 15% with uncarboxylated osteocalcin treatment.

Wild type mice = test: Osteocalcin subcutaneous infusion in wt mice: insulin sensitivity after insulin injection; format: in vivo, mouse; details: 0.3 or 3 ng/hour s.c. for 18 days, then single insulin injection, 0-120 minutes, vs PBS
Protocol: FIG. 12. […] Wt mice were infused subcutaneously with indicated doses of recombinant osteocalcin or PBS for 18 days before receiving a single injection of insulin. Blood glucose was measured thereafter at indicated times.
For glucose tolerance test (GTT), glucose (2 g/kg body weight (BW)) was injected intraperitoneally (IP) after an overnight fast and blood glucose was monitored using blood glucose strips and the Accu-Check glucometer (Roche) at indicated times. For glucose stimulated insulin secretion test (GSIS), glucose (3 g/kg BW) was injected IP after an overnight fast; sera were collected from tails and insulin measured as described (Mauvais-Jarvis et al., 2000). For insulin tolerance test (ITT), mice were fasted for six hours, injected IP with insulin (0.2 U/kg BW) and blood glucose levels were measured at indicated times as described (Mauvais-Jarvis et al., 2002). ITT data are presented as percentage of initial blood glucose concentration. […] Streptozotocin ([…] single injection, Sigma) was injected IP and blood glucose measured as described above every 2 days thereafter. […] Food intake was measured using metabolic cages as the daily change of food weight. Energy expenditure was measured using metabolic cages connected to a calorimeter (Columbus Instrument). Heat values (Kcal/Hr) were recorded over 2 days and reported to each mouse BW. […]

[2] = listed as recombinant osteocalcin

“uncarboxylated osteocalcin: Recombinant mouse osteocalcin bacterially produced, cleaved from GST with thrombin; completely undercarboxylated at all three sites (YLGASVPSPDPLEPTREQCELNPACDELSDQYGLKTAYKRIYGITI; not fully specified; ends and bridges not checked; UniProt P86546 50-95, looked up)” was tested, and the Adiponectin expression increase (Wild type adipocytes) was ~1.5 fold, the body weight gain [1] was “significantly reduced” and the body weight gain [1, 2] was “prevents GTG-induced obesity”. The body weight reduction ([1]; 1 ng/hr s.c., at 28 days) was “about 15%”, the insulin sensitivity (Wild type mice) was “increased” and the insulin sensitivity (Wild type mice; [2]) was “increases insulin sensitivity”.
